From patent US20080114038A1 (priority 2004, published 2008)

What was measured:
[1] = tested on: edema of the paw induced by carragenine; assay: Edema of rat paws induced by carragenine; format: in vivo, male rats of the Wistar type; details: i.p. 30 minutes before carragenine 1%; molar dose equivalent to diclofenac; paw volume up to 4 hours
Description: For the performance of this one test, animals, such as, for example, male rats of the Wistar type were used, which weighed between 150-180 g. These rats were acquired from CEMIB/UNICAMP.
Five rats were treated with the diclofenac, five rats with the modified diclofenac and five rats with the DMSO vehicle.
After a period of approximately 30 minutes, the animals were inoculated with an intraplantary injection of approximately 0.1 mL of a solution of carragenine 1% in saline solution, at the right hind paw, while the contralateral paw received the same volume but only of the saline solution.
The quantification of the volume of the paw was performed by means of an adequate instrument, such as, for example a pletismometer. The volume of the paws was checked before the administration of the carragenine (T0) and after 30 minutes, 1, 2, 3 and 4 hours. The T0 value was subtracted from the other values arrived at.

COX-1 = COX-1 (Homo sapiens, UniProt P23219); details: read-out: concentration responsible for the inhibition of 50% of the production of TXA2 (IC50); human whole blood without anticoagulant, 37° C., 1 hour, serum
Chain of COX-1 (P23219 24-599): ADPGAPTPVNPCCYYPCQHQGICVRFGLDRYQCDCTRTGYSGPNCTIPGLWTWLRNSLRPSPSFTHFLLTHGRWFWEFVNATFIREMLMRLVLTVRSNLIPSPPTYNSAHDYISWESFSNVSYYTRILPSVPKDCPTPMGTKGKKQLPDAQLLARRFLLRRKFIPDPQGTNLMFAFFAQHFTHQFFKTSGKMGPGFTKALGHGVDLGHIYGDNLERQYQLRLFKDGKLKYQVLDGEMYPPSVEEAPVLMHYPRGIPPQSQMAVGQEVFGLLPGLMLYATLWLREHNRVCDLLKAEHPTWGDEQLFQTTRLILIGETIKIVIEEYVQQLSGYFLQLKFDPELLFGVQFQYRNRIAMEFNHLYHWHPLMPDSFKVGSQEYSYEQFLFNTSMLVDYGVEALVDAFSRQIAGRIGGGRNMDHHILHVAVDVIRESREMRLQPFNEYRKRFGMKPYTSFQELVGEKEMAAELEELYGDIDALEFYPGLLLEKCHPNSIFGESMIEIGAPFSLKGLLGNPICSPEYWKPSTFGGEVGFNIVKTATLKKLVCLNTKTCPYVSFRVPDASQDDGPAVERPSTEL

For `O=C(Cc1ccccc1Nc1c(Cl)cccc1Cl)OCc1ccc2c(c1)no[n+]2[O-]` [modified diclofenac, [2-(2,6-dichloro-phenylamino)-phenyl]-acetic acid 1-oxy-benzo[1,2,5]oxadiazol-5-ylmethyl ester], the “inhibition of the edema of the paw induced by carragenine (paw volume, FIG. 1)” value [1] was “capable of inhibiting the edema of the paw induced by carragenine in the same way that the standard diclofenac” and the IC50 (COX-1) was ~40.4 µM.
